According to PubChem BioAssay (NCI):
Values joined by “and” are separate entries in the source; they are usually repeats but may differ in a detail not shown here. Equal values may be shown once.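 Test compounds were applied to cells in 96-well plates for 48 hours at 5 doses. At the GI50, growth is halved. TGI: total growth inhibition.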

Legend:
Experiment in all cases: NCI-60 cell line screen, 48 h
UACC-62 melanoma = test system: UACC-62 melanoma
HCC-2998 colon = test system: HCC-2998 colon
TK-10 renal = test system: TK-10 renal
COLO 205 colon = test system: COLO 205 colon
UO-31 renal = test system: UO-31 renal
M14 melanoma = test system: M14 melanoma
SF-295 CNS = test system: SF-295 CNS
IGROV1 ovarian = test system: IGROV1 ovarian
HCT-15 colon = test system: HCT-15 colon
PC-3 prostate = test system: PC-3 prostate

Row | Compound | GI50 (UACC-62 melanoma) | TGI (UACC-62 melanoma) | GI50 (HCC-2998 colon) | TGI (HCC-2998 colon) | GI50 (TK-10 renal) | TGI (TK-10 renal) | GI50 (COLO 205 colon) | TGI (COLO 205 colon) | GI50 (UO-31 renal) | TGI (UO-31 renal) | GI50 (M14 melanoma) | TGI (M14 melanoma) | GI50 (SF-295 CNS) | TGI (SF-295 CNS) | GI50 (IGROV1 ovarian) | TGI (IGROV1 ovarian) | GI50 (HCT-15 colon) | TGI (HCT-15 colon) | GI50 (PC-3 prostate) | TGI (PC-3 prostate)
1 | OC(CNC1CCCC1)Cn1c2ccccc2c2ccccc21 (centres undefined) | 32.7 µM | > 100 µM | > 100 µM | > 100 µM | 27.5 µM | > 100 µM | > 100 µM | > 100 µM | 97.2 µM | > 100 µM | > 100 µM | > 100 µM | 23.7 µM | 73.5 µM | 72.9 µM | > 100 µM | 80.5 µM | > 100 µM | > 100 µM | > 100 µM
2 | CCCCCN(CCCCC)CC(O)c1cc2c(c3ccccc13)CCCC2 (centres undefined) | 3.31 µM and 11.2 µM | 12.9 µM and 29.2 µM | 2.54 µM and 4.28 µM | 5.99 µM and 15.6 µM | 10.6 µM and 18.2 µM | 22.9 µM and 37.9 µM | 3.4 µM and 13.7 µM | 13.8 µM and 80.5 µM | 3.79 µM and 6.15 µM | 15.6 µM and 22.1 µM | 4.76 µM and 10.4 µM | 16.3 µM and 23.8 µM | 2.38 µM and 6.82 µM | 11.4 µM and 29.8 µM | 3.5 µM and 6.44 µM | 17.3 µM and 33.3 µM | 5.31 µM and 6.52 µM | 20.8 µM and 26.4 µM | 5.14 µM and 5.62 µM | 21.6 µM and 20.9 µM
3 | COC(=O)[C@@]1(O)C[C@H]2O[C@]1(C)n1c3ccccc3c3c4c(c5c6ccccc6n2c5c31)C(=O)NC4 | 0.132 µM | 1.55 µM | 0.609 µM | 2.8 µM | 0.0284 µM | 1.39 µM | 0.231 µM | 0.692 µM | 0.0256 µM | 1.37 µM | 0.0355 µM | 1.15 µM | 0.661 µM | 2.31 µM | 0.17 µM | 3.28 µM | 0.0706 µM | 2.5 µM | 0.251 µM | 2.95 µM
4 | N#CC1=C(N)Oc2c(sc3c(F)cccc23)C1c1ccc(F)cc1 (centres undefined) | 0.551 µM | 14.9 µM | 1.62 µM | 8.58 µM | 8.24 µM | 25.3 µM | 2.83 µM | 13.2 µM | 1.27 µM | 12.1 µM | 0.41 µM | 6.41 µM | 0.364 µM | 6.28 µM | 0.621 µM | 14.7 µM | 0.421 µM | 12 µM | 0.892 µM | 16.2 µM
5 | CSC1C(=O)c2ccccc2/C(=N/Nc2nc3ccccc3s2)C1C (centres undefined) | 8.67 µM | 16.5 µM | – | – | 15.6 µM | 42 µM | 9.63 µM | 21.1 µM | 6.02 µM | 13.8 µM | 14.6 µM | 33.1 µM | 19.7 µM | > 50 µM | 0.648 µM | 4.22 µM | 7.58 µM | 15.8 µM | 9.28 µM | 27.2 µM
6 | O=C1C(=O)c2ccccc2C(O)=C1CCCCCCCCC1CCCCC1 | – | 18.4 µM | – | 24.4 µM | – | 38.7 µM | – | 22.7 µM | – | 20.6 µM | – | 26.2 µM | – | – | – | 19.2 µM | – | 19.2 µM | – | 19.5 µM
7 | O=C(/C=C/c1ccc(C(F)(F)F)cc1)c1ccc(Nc2nc(NCCO)nc(N3CCOCC3)n2)cc1 | 2.76 µM | 8.87 µM | 2.34 µM | 5.7 µM | – | – | 2.09 µM | 4.08 µM | 1.31 µM | 2.58 µM | 2.01 µM | 4.28 µM | 2.67 µM | 7.6 µM | 2 µM | 4.42 µM | 1.89 µM | 4.82 µM | 2.24 µM | 7.83 µM
8 | COc1cc([N+](=O)[O-])c(OC)cc1-c1nc2sc(Cl)cn2c1/C=N/NC(=N)N/N=C/c1c(-c2cc(OC)c([N+](=O)[O-])cc2OC)nc2sc(Cl)cn12 | – | – | 1.69 µM | 3.15 µM | – | – | 1.89 µM | 4.08 µM | – | – | 1.91 µM | 3.36 µM | – | – | – | – | 4.54 µM | 22.5 µM | 1.97 µM | 3.47 µM
9 | CC(=O)c1c[nH]cc1CO | – | – | – | > 10 µM | – | > 10 µM | – | > 10 µM | – | > 10 µM | – | > 10 µM | – | > 10 µM | – | > 10 µM | – | > 10 µM | – | > 10 µM
10 | O=C(NCP(=O)(O)O)c1cccnc1 | – | > 100 µM | – | – | – | > 100 µM | – | > 100 µM | – | > 100 µM | – | > 100 µM | – | > 100 µM | – | > 100 µM | – | > 100 µM | – | > 100 µM
11 | COC(=O)[C@@H](C)C[C@H](Cc1ccccc1)NC(=O)c1csc([C@@H](C[C@H](C(C)C)N(C)C(=O)C2(NC(=O)[C@H]3CCCCN3C)CC2)OC(C)=O)n1 | 0.00352 µM and 0.00333 µM | > 33.3 µM | 0.00849 µM and 0.00333 µM | > 33.3 µM | – | – | 0.00346 µM | 0.0644 µM | 1.3 µM | > 33.3 µM | 0.00504 µM and 0.00333 µM | 0.468 µM | 0.0251 µM and 0.00333 µM | > 33.3 µM | 0.00147 µM and 0.00333 µM | > 33.3 µM | 0.424 µM | – | 0.00523 µM and 0.00333 µM | > 33.3 µM
12 | CN(C)CCNC(=O)c1cc2c3ccccc3[nH]c2c2ncccc12 | 13.4 µM | 28 µM | – | – | 8.99 µM | 54.7 µM | 2.95 µM | 16.5 µM | 2.13 µM | 24.3 µM | 12.1 µM | 27.2 µM | – | – | 1.14 µM | 19.1 µM | 5.88 µM | 25 µM | 9.14 µM | 34.2 µM
13 | CN1CCn2c(c(Sc3ccc(C(=O)NO)cc3)c3ccccc32)C1=O | 1.44 µM | 3.24 µM | 1.94 µM | 3.76 µM | 2.09 µM | 5.29 µM | 1.69 µM | 3.87 µM | 3.1 µM | 13.6 µM | 1.77 µM | 3.99 µM | – | – | 1.82 µM | 3.85 µM | 2.73 µM | 14.3 µM | 1.96 µM | 4.57 µM
14 | Cc1cccc2c1C/C(=C1\CCc3c(C)cccc31)C2=O | – | > 100 µM | – | > 100 µM | – | > 100 µM | – | > 100 µM | – | > 100 µM | – | > 100 µM | – | > 100 µM | – | > 100 µM | – | > 100 µM | – | –
15 | CCCN(CCC)C(=O)[C@H](CC)[C@@H]1CC[C@@H](C)[C@@H]([C@H](C)[C@@H](O)[C@@H](C)C(=O)[C@H](CC)C2O[C@]3(C=C[C@@H](O)[C@]4(CC[C@@](C)([C@H]5CC[C@](O)(CC)[C@H](C)O5)O4)O3)[C@H](C)C[C@@H]2C)O1 (some centres undefined) | 1.71 µM | 4.93 µM | 2.18 µM | 5.76 µM | 3.3 µM | 68.3 µM | – | – | 2.12 µM | 7.03 µM | – | – | 2.45 µM | 8.91 µM | 2.59 µM | 10.5 µM | 2.24 µM | 5.61 µM | 2.05 µM | 11 µM
